In patent publication US20260053834A1, “COVALENT MODIFIERS OF AKT1 AND USES THEREOF” (Terremoto Biosciences, Inc., priority 2023, published 2026):

Columns and labels:
[1] = biological target: T1, AKT1 E17K (Homo sapiens, UniProt P31749, E17K); assay: Live cell target engagement by NanoBRET competitive probe displacement, AKT1 E17K; assay type: binding; details: transfected HEK293 cells, 2 h at 37° C., read-out: AKT1 E17K IC50: GeoMean IC50
T1 construct: expressed in transfected cells; host or cells: HEK293
T1 sequence (P31749 whole entry E17K): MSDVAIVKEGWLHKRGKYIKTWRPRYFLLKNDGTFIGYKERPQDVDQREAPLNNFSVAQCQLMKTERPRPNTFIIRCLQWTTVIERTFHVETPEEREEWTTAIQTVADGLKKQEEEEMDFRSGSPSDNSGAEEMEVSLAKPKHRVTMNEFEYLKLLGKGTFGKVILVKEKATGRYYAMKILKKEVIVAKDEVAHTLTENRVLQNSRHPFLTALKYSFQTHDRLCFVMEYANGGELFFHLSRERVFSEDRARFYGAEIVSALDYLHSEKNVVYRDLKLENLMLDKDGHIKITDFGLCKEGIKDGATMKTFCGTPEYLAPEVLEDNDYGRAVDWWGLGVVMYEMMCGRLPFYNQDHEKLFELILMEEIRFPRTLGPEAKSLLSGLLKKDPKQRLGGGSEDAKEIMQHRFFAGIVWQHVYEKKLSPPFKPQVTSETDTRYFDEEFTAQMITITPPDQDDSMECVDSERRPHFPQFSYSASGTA

[2] = biological target: T2, AKT1 WT (Homo sapiens, UniProt P31749); assay: Live cell target engagement by NanoBRET competitive probe displacement, AKT1 WT; assay type: binding; details: transfected HEK293 cells, 2 h at 37° C., read-out: AKT1 WT IC50: GeoMean IC50
T2 construct: expressed in transfected cells; host or cells: HEK293
T2 sequence (P31749 whole entry): as the sequence (P31749 whole entry E17K) above, with K17E counted along it

[3] = tested on: LAPC4 prostate cancer cells, which express the AKT1 E17K allele; assay: Antiproliferative effects in LAPC4 cells (CellTiter Glo, 72 h); assay type: cell-based; details: Homo sapiens, LAPC4, 72 h, read-out: LAPC4 proliferation IC50: GeoMean IC50
Procedure, shortened: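 Cells grown in IMDM with 12% FBS, seeded at 1,000 cells/well and treated with compound dilutions in DMSO for 72 h. Intracellular ATP read by luminescence. IC50 from a log(inhibitor) vs. response Hill fit.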

[4] = biological target: T3, AKT2 (Homo sapiens, UniProt P31751); assay: Live cell target engagement by NanoBRET competitive probe displacement, AKT2; assay type: binding; details: transfected HEK293 cells, 2 h at 37° C., read-out: AKT2 IC50: GeoMean IC50
T3 construct: expressed in transfected cells; host or cells: HEK293
T3 sequence (P31751 whole entry): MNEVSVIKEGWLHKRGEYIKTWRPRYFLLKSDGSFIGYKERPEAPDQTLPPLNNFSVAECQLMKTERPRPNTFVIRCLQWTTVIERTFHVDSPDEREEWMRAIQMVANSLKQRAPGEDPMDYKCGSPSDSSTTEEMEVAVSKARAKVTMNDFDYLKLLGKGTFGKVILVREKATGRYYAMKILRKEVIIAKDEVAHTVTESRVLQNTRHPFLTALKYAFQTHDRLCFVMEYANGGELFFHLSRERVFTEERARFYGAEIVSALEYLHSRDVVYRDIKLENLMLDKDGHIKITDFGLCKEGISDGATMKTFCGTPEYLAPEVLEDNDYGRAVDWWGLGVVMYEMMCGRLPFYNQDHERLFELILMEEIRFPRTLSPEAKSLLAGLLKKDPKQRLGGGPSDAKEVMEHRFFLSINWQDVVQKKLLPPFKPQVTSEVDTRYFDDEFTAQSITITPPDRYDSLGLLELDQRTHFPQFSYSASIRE

Row | Compound | IC50 [1] | IC50 [2] | IC50 [3] | IC50 [4]
1 | Nc1ncccc1-c1nc2c(N3CCOCC3)cc(-n3cccn3)nc2n1-c1ccc2c(c1)CC[C@@H]2NC(=O)c1ccc(O)c(C=O)c1 [Example 224, N-[(1S)-5-[2-(2-aminopyridin-3-yl)-7-(morpholin-4-yl)-5-(pyrazol-1-yl)imidazo[4,5-b]pyridin-3-yl]-2,3-dihydro-1H-inden-1-yl]-3-formyl-4-hydroxybenzamide] | 10 to 100 nM | 10 to 100 nM | 10 to 100 nM | 100 to 2000 nM
2 | Nc1ncccc1-c1nc2ccc(-c3cn[nH]c3)nc2n1-c1ccc2c(c1)CC[C@@H]2NC(=O)c1ccc(O)c(C=O)c1 [Example 67, N-[(1S)-5-[2-(2-aminopyridin-3-yl)-5-(1H-pyrazol-4-yl)imidazo[4,5-b]pyridin-3-yl]-2,3-dihydro-1H-inden-1-yl]-3-formyl-4-hydroxybenzamide] | 100 to 2000 nM | 100 to 2000 nM | 100 to 2000 nM | 100 to 2000 nM
3 | Nc1ncccc1-c1nc2ccc(-n3cc(C=O)cn3)nc2n1-c1ccc2c(c1)CC[C@@H]2NC(=O)c1ccc(O)c(C=O)c1 [Example 84, N-[(1S)-5-[2-(2-aminopyridin-3-yl)-5-(4-formylpyrazol-1-yl)imidazo[4,5-b]pyridin-3-yl]-2,3-dihydro-1H-inden-1-yl]-3-formyl-4-hydroxybenzamide] | 10 to 100 nM | 100 to 2000 nM | 100 to 2000 nM | 100 to 2000 nM
4 | CCc1cc(-n2cccn2)nc2c1nc(-c1cccnc1N)n2-c1ccc2c(c1)CC[C@@H]2NC(=O)c1ccc(O)c(C=O)c1 [Example 197, N-[(1S)-5-[2-(2-aminopyridin-3-yl)-7-ethyl-5-(pyrazol-1-yl)imidazo[4,5-b]pyridin-3-yl]-2,3-dihydro-1H-inden-1-yl]-3-formyl-4-hydroxybenzamide] | 10 to 100 nM | 10 to 100 nM | 100 to 2000 nM | 10 to 100 nM
5 | Nc1ncccc1-c1nc2cc(O)c(-n3cccn3)nc2n1-c1ccc2c(c1)CC[C@@H]2NC(=O)c1cc(C=O)c(O)cc1F [Example 226, N-[(1S)-5-[2-(2-aminopyridin-3-yl)-6-hydroxy-5-(pyrazol-1-yl)imidazo[4,5-b]pyridin-3-yl]-2,3-dihydro-1H-inden-1-yl]-2-fluoro-5-formyl-4-hydroxybenzamide] | 10 to 100 nM | 10 to 100 nM | 10 to 100 nM | 100 to 2000 nM

Further lines, results first:

Row | IC50 [1] | IC50 [2] | IC50 [3] | IC50 [4] | Compound
6 | 10 to 100 nM | 10 to 100 nM | 100 to 2000 nM | 100 to 2000 nM | C#Cc1cc(O)c(C=O)cc1C(=O)N[C@H]1CCc2cc(-n3c(-c4cccnc4N)nc4ccc(-n5cccn5)nc43)ccc21 [Example 145, N-[(1S)-5-[2-(2-aminopyridin-3-yl)-5-(pyrazol-1-yl)imidazo[4,5-b]pyridin-3-yl]-2,3-dihydro-1H-inden-1-yl]-2-ethynyl-5-formyl-4-hydroxybenzamide]
7 | < 10 nM | 10 to 100 nM | 10 to 100 nM | 100 to 2000 nM | Nc1ncccc1-c1nc2c(C(F)F)cc(-n3cccn3)nc2n1-c1ccc2c(c1)CC[C@@H]2NC(=O)c1ccc(O)c(C=O)c1 [Example 245, N-[(1S)-5-[2-(2-aminopyridin-3-yl)-7-(difluoromethyl)-5-(pyrazol-1-yl)imidazo[4,5-b]pyridin-3-yl]-2,3-dihydro-1H-inden-1-yl]-3-formyl-4-hydroxybenzamide]
8 | 10 to 100 nM | 10 to 100 nM | 10 to 100 nM | 100 to 2000 nM | Nc1ncccc1-c1nc2ccc(-n3ncc4cccnc43)nc2n1-c1ccc2c(c1)CC[C@@H]2NC(=O)c1cc(C=O)c(O)c(F)c1F [Example 172, (S)—N-(5-(2-(2-aminopyridin-3-yl)-5-(1H-pyrazolo[3,4-b]pyridin-1-yl)-3H-imidazo[4,5-b]pyridin-3-yl)-2,3-dihydro-1H-inden-1-yl)-2,3-difluoro-5-formyl-4-hydroxybenzamide]
